In ChEMBL document CHEMBL3044541, “Control of crown rot-causing fungal pathogens of banana by inorganic salts and a surfactant” (Crop Prot, 2007) one finds inhibition and Activity data, which are given here for 3 compounds.

Activity calls are given as the source filed them. The calls are words filed in the database; no cut-off is given here.

The test system of series [1] is Thielaviopsis paradoxa. Kind of series: Antifungal activity against Ceratocystis paradoxa assessed as inhibition of conidium germination at 5 g/l incubated for 15 min followed by compound washout measured after 2 days by microscopic analysis in absence of surfactant APSA 80. The class given is functional, organism-based.
In series [2] the test system is Colletotrichum musae. Kind of series: Antifungal activity against Colletotrichum musae assessed as inhibition of conidium germination at 5 g/l incubated for 15 min followed by compound washout measured after 2 days by microscopic analysis in absence of surfactant APSA 80. The class given is functional, organism-based.
Series [3] deals with Lasiodiplodia theobromae. Kind of series: Antifungal activity against Lasiodiplodia theobromae assessed as inhibition of conidium germination at 5 g/l incubated for 15 min followed by compound washout measured after 2 days by microscopic analysis in absence of surfactant APSA 80. The class given is functional, organism-based.
For series [4], the system named is Colletotrichum musae. Description: Growth inhibition of Colletotrichum musae assessed as concentration required for inhibition of mycelial growth incubated for 15 min followed by compound washout measured after 7 days in presence of surfactant APSA 80. The class given is functional.
Series [5] has as its system Thielaviopsis paradoxa. Description: Growth inhibition of Ceratocystis paradoxa assessed as inhibition of mycelial growth up to 160 g/l incubated for 15 min followed by compound washout measured after 7 days in absence of surfactant APSA 80. The class given is functional, organism-based.
The subject of series [6] is Colletotrichum musae. Kind of series: Antifungal activity against Colletotrichum musae assessed as inhibition of conidium germination at 5 g/l incubated for 15 min followed by compound washout measured after 7 days by microscopic analysis in presence of surfactant APSA 80. The series is classed as functional, organism-based.
The test system of series [7] is Thielaviopsis paradoxa. Description: Antifungal activity against Ceratocystis paradoxa assessed as inhibition of conidium germination at 5 g/l incubated for 15 min followed by compound washout measured after 7 days by microscopic analysis in presence of surfactant APSA 80. The series is classed as functional, organism-based.
Series [8] relates to Lasiodiplodia theobromae. Kind of series: Antifungal activity against Lasiodiplodia theobromae assessed as inhibition of conidium germination at 5 g/l incubated for 15 min followed by compound washout measured after 7 days by microscopic analysis in presence of surfactant APSA 80. The class given is functional, organism-based.
Series [9] relates to Fusarium verticillioides. Kind of series: Antifungal activity against Fusarium verticillioides assessed as inhibition of conidium germination at 5 g/l incubated for 15 min followed by compound washout measured after 2 days by microscopic analysis in absence of surfactant APSA 80. The series is classed as functional, organism-based.
Series [10] deals with Fusarium verticillioides. Kind of series: Antifungal activity against Fusarium verticillioides assessed as inhibition of conidium germination at 5 g/l incubated for 15 min followed by compound washout measured after 7 days by microscopic analysis in presence of surfactant APSA 80. The series is classed as functional, organism-based.
Series [11] concerns Fusarium verticillioides. Kind of series: Growth inhibition of Fusarium verticillioides assessed as concentration required for inhibition of mycelial growth incubated for 15 min followed by compound washout measured after 7 days in absence of surfactant APSA 80. The series is classed as functional.
For series [12], the system named is Colletotrichum musae. Description: Growth inhibition of Colletotrichum musae assessed as concentration required for inhibition of mycelial growth incubated for 15 min followed by compound washout measured after 7 days in absence of surfactant APSA 80. The series is classed as functional.
The subject of series [13] is Lasiodiplodia theobromae. Description: Growth inhibition of Lasiodiplodia theobromae assessed as concentration required for inhibition of mycelial growth incubated for 15 min followed by compound washout measured after 7 days in absence of surfactant APSA 80. The series is classed as functional.
Series [14] concerns Musa acuminata AAA Group. Description: Phytotoxicity against Musa acuminata AAA Group (Cavendish banana) assessed as skin burn incubated for 15 min followed by compound washout measured after 1 to 3 weeks in presence of surfactant APSA 80 relative to control. The following applies: in vivo. The series is classed as organism-based.
The test system of series [15] is Musa acuminata AAA Group. Description: Phytotoxicity against Musa acuminata AAA Group (Cavendish banana) assessed as discoloration incubated for 15 min followed by compound washout measured after 1 to 3 weeks in presence of surfactant APSA 80 relative to control. The following applies: in vivo. The class given is organism-based.
Series [16] concerns Thielaviopsis paradoxa. Kind of series: Antifungal activity against Ceratocystis paradoxa assessed as inhibition of conidium germination at 6 g/l incubated for 15 min followed by compound washout measured after 2 days by microscopic analysis in absence of surfactant APSA 80. The series is classed as functional, organism-based.
Series [17] relates to Colletotrichum musae. Description: Antifungal activity against Colletotrichum musae assessed as inhibition of conidium germination at 6 g/l incubated for 15 min followed by compound washout measured after 2 days by microscopic analysis in absence of surfactant APSA 80. The series is classed as functional, organism-based.
The test system of series [18] is Lasiodiplodia theobromae. Kind of series: Antifungal activity against Lasiodiplodia theobromae assessed as inhibition of conidium germination at 6 g/l incubated for 15 min followed by compound washout measured after 2 days by microscopic analysis in absence of surfactant APSA 80. The series is classed as functional, organism-based.
Series [19] relates to Colletotrichum musae. Description: Growth inhibition of Colletotrichum musae assessed as inhibition of mycelial growth up to 160 g/l incubated for 15 min followed by compound washout measured after 7 days in presence of surfactant APSA 80. The series is classed as functional, organism-based.
Series [20] has as its system Lasiodiplodia theobromae. Description: Growth inhibition of Lasiodiplodia theobromae assessed as inhibition of mycelial growth up to 160 g/l incubated for 15 min followed by compound washout measured after 7 days in presence of surfactant APSA 80. The class given is functional, organism-based.
For series [21], the system named is Colletotrichum musae. Description: Antifungal activity against Colletotrichum musae assessed as inhibition of conidium germination at 6 g/l incubated for 15 min followed by compound washout measured after 7 days by microscopic analysis in presence of surfactant APSA 80. The class given is functional, organism-based.
Series [22] deals with Thielaviopsis paradoxa. Kind of series: Antifungal activity against Ceratocystis paradoxa assessed as inhibition of conidium germination at 6 g/l incubated for 15 min followed by compound washout measured after 7 days by microscopic analysis in presence of surfactant APSA 80. The series is classed as functional, organism-based.
Series [23] relates to Lasiodiplodia theobromae. Kind of series: Antifungal activity against Lasiodiplodia theobromae assessed as inhibition of conidium germination at 6 g/l incubated for 15 min followed by compound washout measured after 7 days by microscopic analysis in presence of surfactant APSA 80. The class given is functional, organism-based.
Series [24] relates to Fusarium verticillioides. Kind of series: Antifungal activity against Fusarium verticillioides assessed as inhibition of conidium germination at 6 g/l incubated for 15 min followed by compound washout measured after 2 days by microscopic analysis in absence of surfactant APSA 80. The class given is functional, organism-based.
Series [25] relates to Fusarium verticillioides. Kind of series: Antifungal activity against Fusarium verticillioides assessed as inhibition of conidium germination at 6 g/l incubated for 15 min followed by compound washout measured after 7 days by microscopic analysis in presence of surfactant APSA 80. The series is classed as functional, organism-based.

With `[Ca+2].[Cl-].[Cl-]` [CALCIUM CHLORIDE], the inhibition result with Thielaviopsis paradoxa [1], in the series on Colletotrichum musae [2], with Lasiodiplodia theobromae [3], in the series with Colletotrichum musae [6], with Thielaviopsis paradoxa [7] and with Lasiodiplodia theobromae [8] was “Active” each time. The inhibition entry in the series on Fusarium verticillioides [9] and in the series on Fusarium verticillioides [10] was “Active” each time. Further, the Activity in the series with Colletotrichum musae [4] is 140 g/L. Besides, the result in the series on Thielaviopsis paradoxa [5] was inactive.
For the compound `[Na+].[O-]Cl` [SODIUM HYPOCHLORITE], the inhibition entry with Thielaviopsis paradoxa [1], in the series with Colletotrichum musae [2], with Lasiodiplodia theobromae [3], in the series with Colletotrichum musae [6], in the series on Thielaviopsis paradoxa [7] and in the series on Lasiodiplodia theobromae [8] was “Active” in each case. Further, the inhibition entry in the series on Fusarium verticillioides [9] and in the series on Fusarium verticillioides [10] was “Active” throughout. In addition, the Activity in the series with Fusarium verticillioides [11] is given as 70 g/L; in the series on Colletotrichum musae [12], 50 g/L; with Lasiodiplodia theobromae [13], 20 g/L; in the series with Musa acuminata AAA Group [14], “Toxic”; with Musa acuminata AAA Group [15], “Toxic”.
As for `[Cl-].[Na+]` [SODIUM CHLORIDE], the inhibition entry in the series on Thielaviopsis paradoxa [16], in the series with Colletotrichum musae [17], with Lasiodiplodia theobromae [18], in the series on Colletotrichum musae [21], in the series with Thielaviopsis paradoxa [22] and in the series with Lasiodiplodia theobromae [23] was “Active” in each case. The inhibition entry in the series on Fusarium verticillioides [24] and with Fusarium verticillioides [25] was “Active” each time. The outcome in the series with Colletotrichum musae [19], with Thielaviopsis paradoxa [5] and in the series with Lasiodiplodia theobromae [20] was inactive. The Activity entry in the series on Musa acuminata AAA Group [14] and in the series with Musa acuminata AAA Group [15] was “Toxic” throughout.
